Assays:
Assay in all cases: relative viability (nuclei count vs DMSO), 5 days (fraction); higher = more cells survive
Erlotinib = compound: C#Cc1cccc(Nc2ncnc3cc(OCCOC)c(OCCOC)cc23)c1 [Erlotinib]
In short: (§1)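 After an overnight hold at 37 °C, lung cancer cell lines in 1536-well plates were pinned with five library-drug doses (not always all listed), each √10 from the next, on vehicle-anchored plates. The cells stayed 5 days without fresh medium, then a one-step fix, permeabilisation and Hoechst stain preceded 4× imaging and MetaXpress nuclear counts. A plate passed only with control CV under 25% and at least one doubling. Viability is the median, over plates, of treated-well nuclei relative to vehicle-well nuclei.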

Phenformin = compound: N=C(N)NC(=N)NCCc1ccccc1 [Phenformin] (anchor plate); conditions: 250 µM
In short: as §1

AT9283 = compound: O=C(Nc1c[nH]nc1-c1nc2ccc(CN3CCOCC3)cc2[nH]1)NC1CC1 [AT9283]
In short: as §1

H3255 showed a relative viability (Erlotinib; 0.02 µM) of 0.946, a relative viability (Erlotinib; 0.2 µM) of 0.709 and a relative viability (Erlotinib; 0.6325 µM) of 0.514. It also gave a relative viability (Erlotinib; 2 µM) of 0.225, a relative viability (Phenformin) of 0.386 and a relative viability (AT9283; 0.003 µM) of 0.998. It also gave a relative viability (AT9283; 0.03 µM) of 0.95, a relative viability (AT9283; 0.09487 µM) of 0.714 and a relative viability (AT9283; 0.3 µM) of 0.177.
For HARA, the relative viability (Erlotinib; 0.02 µM) was 1.04, the relative viability (Erlotinib; 0.2 µM) was 0.707 and the relative viability (Erlotinib; 0.6325 µM) was 0.823. It also gave a relative viability (Erlotinib; 2 µM) of 0.466, a relative viability (Phenformin) of 0.46 and a relative viability (AT9283; 0.003 µM) of 0.859. For the same cell line, the relative viability (AT9283; 0.03 µM) was 0.446, the relative viability (AT9283; 0.09487 µM) was 0.166 and the relative viability (AT9283; 0.3 µM) was 0.171.
Cell Line HCC-15 has a relative viability (Erlotinib; 0.02 µM) of 1.05, a relative viability (Erlotinib; 0.2 µM) of 0.97 and a relative viability (Erlotinib; 0.6325 µM) of 1.08. It also gave a relative viability (Erlotinib; 2 µM) of 0.888, a relative viability (Phenformin) of 0.491 and a relative viability (AT9283; 0.003 µM) of 0.955. For the same cell line, the relative viability (AT9283; 0.03 µM) was 0.589, the relative viability (AT9283; 0.09487 µM) was 0.325 and the relative viability (AT9283; 0.3 µM) was 0.17.
In the case of HCC-44, the relative viability (Erlotinib; 0.02 µM) was 0.994, the relative viability (Erlotinib; 0.2 µM) was 0.961 and the relative viability (Erlotinib; 0.6325 µM) was 1.01. For the same cell line, the relative viability (Erlotinib; 2 µM) was 0.975, the relative viability (Phenformin) was 0.218 and the relative viability (AT9283; 0.003 µM) was 0.988. The relative viability (AT9283; 0.03 µM) was 1, the relative viability (AT9283; 0.09487 µM) was 0.614 and the relative viability (AT9283; 0.3 µM) was 0.335.
HCC-78 showed a relative viability (Erlotinib; 0.02 µM) of 0.99, a relative viability (Erlotinib; 0.2 µM) of 0.963 and a relative viability (Erlotinib; 0.6325 µM) of 1.08. The relative viability (Erlotinib; 2 µM) was 0.745, the relative viability (Phenformin) was 0.681 and the relative viability (AT9283; 0.003 µM) was 0.847. The relative viability (AT9283; 0.03 µM) was 0.794, the relative viability (AT9283; 0.09487 µM) was 0.332 and the relative viability (AT9283; 0.3 µM) was 0.262.
HCC-366 showed a relative viability (Erlotinib; 0.02 µM) of 1.03, a relative viability (Erlotinib; 0.2 µM) of 1.07 and a relative viability (Erlotinib; 0.6325 µM) of 0.984. For the same cell line, the relative viability (Erlotinib; 2 µM) was 1.01, the relative viability (Phenformin) was 0.608 and the relative viability (AT9283; 0.003 µM) was 0.956. The relative viability (AT9283; 0.03 µM) was 0.938, the relative viability (AT9283; 0.09487 µM) was 0.54 and the relative viability (AT9283; 0.3 µM) was 0.204.
Work on HCC-827 yielded a relative viability (Erlotinib; 0.02 µM) of 0.549, a relative viability (Erlotinib; 0.2 µM) of 0.185 and a relative viability (Erlotinib; 0.6325 µM) of 0.177. For the same cell line, the relative viability (Erlotinib; 2 µM) was 0.208, the relative viability (Phenformin) was 0.4 and the relative viability (AT9283; 0.003 µM) was 0.985. The relative viability (AT9283; 0.03 µM) was 0.855, the relative viability (AT9283; 0.09487 µM) was 0.618 and the relative viability (AT9283; 0.3 µM) was 0.358.

— the supplement of paper PMC10307832
